{"source": "patent US9233954B2", "about": "“Organic amine salts of Azilsartan, preparation method and use thereof” (Jiangsu Hansoh Pharmaceutical Co., Ltd., priority 2011, dated 2016)", "key": {"[1]": {"system": "Beagle dog", "assay_type": "in vivo", "details": "for Clinical observations: Beagle dog, intragastric", "text": "Acute Toxicity Test Research for Beagle Dog\nObject: Approximate lethal dose method was introduced in the test to observe the acute toxicity response of the animals by intragastric administration of example 2 or Azilsartan medoxomil potassium salt to Beagle dogs to study the toxicity situation of example 2 after administration and compare the toxicity of example 2 and Azilsartan medoxomil potassium salt, which can provide reference confirmation for the evaluation of toxicity of example 2.\nMethod (approximate lethal dose method): 6 Beagle dogs were used, 3 for each of example 2 group and Azilsartan medoxomil potassium salt group. The administration dosage was 0.09, 0.13, 0.19, 0.28, 0.42, 0.63, 0.95, 1.42, 2.13, 3.20 g·kg^−1 respectively, wherein 3.20 g·kg^−1 was the maximum administration dosage (corresponding to 1081 times the given dosage for the clinical patient). The blood was collected before administration and on days 2, 7, and 14 after administration to test the corresponding biochemical indicators. Electrocardiogram, body weight, and body temperature were determined before administration and on days 7 and 14 after administration."}, "[2]": {"experiment": "Hygroscopicity test", "assay_type": "physicochemical", "details": "25° C.±1° C., RH 80%±2%, 24 h", "experimental": "1. A dried glass weighing bottle (Outer diameter […]) with a plug was put into an artificial climate box under the temperature of 25° C.±1° C. and relative humidity (RH) of 80%±2% the day before and then weighed precisely (m1).\n2. The testing sample was weighed precisely (m2) and lain into the weighing bottle. The thickness of the test sample was about 1 mm.\n3. The uncovered weighing bottle and its plug were placed under the above constant temperature and humidity conditions for 24 h.\n4. The weighing bottle was covered and weighed precisely (m3).\nCalculation formula: Percent of weight increase=(m3−m2)/(m2−m1)*100%\n5. Definition of the weight increase of the hygroscopicity\nDeliquescence: absorbing enough water to form liquid.\nHigh hygroscopicity: the weight increase of the hygroscopicity is no less than 15%\nHaving hygroscopicity: the weight increase of the hygroscopicity is between 15% and 2%\nSlight hygroscopicity: the weight increase of the hygroscopicity is between 2% and 0.2%\nNo or almost no hygroscopicity: the weight increase of the hygroscopicity is less than 0.2%"}, "[3]": {"experiment": "Solubility test", "details": "conclusion of the solubility test", "method": "Moreover, “1:40” refers to 1 g of sample was dissolved in 40 ml of methanol at room temperature, the same as “1:80”; “1:120” refers to 1 g of sample was dissolved in 40 ml of ethanol at room temperature, the same as “1:200”."}, "[4]": {"system": "blood pressure of SHR rats", "experiment": "Antihypertensive effect test for spontaneously hypertensive (SHR) rats", "assay_type": "in vivo", "details": "10 mg/kg", "experimental": "Antihypertensive Effect Test For Spontaneously Hypertensive (SHR) Rats\n[…] of 25 week old SHR male rats were randomly divided into 4 groups according to the initial blood pressure, with 6 for the control group (solvent) and 8 for other groups. 10 mg/kg of example 2 compound (Choline Azilsartan), example 4 compound (Azilsartan ethanolamine salts) and control (Azilsartan medoxomil potassium salt) were continuously administered, respectively. The solvent control group was administered solvent. The administration volume was 5 ml/kg and the period was 2 weeks."}}, "note": "Counter-ions that a name gives are not always drawn. Like-named read-outs stand apart in the source and are kept apart here."}
{"compound": "CCOc1nc2cccc(C(=O)OCc3oc(=O)oc3C)c2n1Cc1ccc(-c2ccccc2-c2noc(=O)[nH]2)cc1", "note": "[Azilsartan kamedoxomil, Azilsartan medoxomil potassium salt, reference compound]", "values": [{"measurement": "Clinical observations", "setting": "[1]; 1.42 g·kg^−1 dosage group", "result": "vomit, less moving; moving reduction on day 2 after administration, moving recovered on day 3 and no abnormality observed after day 3"}, {"measurement": "Clinical observations", "setting": "[1]; 2.13 g·kg^−1 dosage group", "result": "vomit, drooling, moving reduction; moving reduction on day 2 after administration, moving recovered on day 3 and no abnormality observed after day 3"}, {"measurement": "Clinical observations", "setting": "[1]; 3.20 g·kg^−1 dosage group", "result": "vomit, drooling, less moving; moving reduction on days 2˜8, prostration on days 5˜8, died on day 9"}, {"measurement": "Body temperature", "setting": "[1]; dog, in vivo", "result": "no abnormality on day 7 after administration"}, {"measurement": "Body weight", "setting": "[1]; dog, in vivo", "result": "decreased on day 7 after administration compared with pre-administration"}, {"measurement": "Electrocardiogram and haematological indicators", "setting": "[1]; dog, in vivo", "result": "not abnormal on day 7 after administration"}, {"measurement": "PT values", "setting": "[1]; dog, in vivo", "result": "reduced significantly after administration compared to pre-administration"}, {"measurement": "Systolic blood pressure and diastolic blood pressure", "setting": "[1]; dog, in vivo", "result": "reduced more or less on day 2 after administration"}]}
{"compound": "CCOc1nc2cccc(C(=O)[O-])c2n1Cc1ccc(-c2ccccc2-c2noc(=O)[nH]2)cc1.C[N+](C)(C)CCO", "note": "[Example 1]", "values": [{"measurement": "Conclusion (hygroscopic or not)", "setting": "[2]", "result": "Yes"}, {"measurement": "Hygroscopicity (percent of weight increase)", "setting": "[2]", "result": 10.51, "unit": "%"}, {"measurement": "Solubility, comparison between samples", "setting": "[3]", "result": "comparable to the solubility of example 2 compound"}]}
{"compound": "CCOc1nc2cccc(C(=O)O)c2n1Cc1ccc(-c2ccccc2-c2noc(=O)[nH]2)cc1.NCCO", "note": "[Example 3]", "values": [{"measurement": "Conclusion (hygroscopic or not)", "setting": "[2]", "result": "Yes"}, {"measurement": "Hygroscopicity (percent of weight increase)", "setting": "[2]", "result": 5.66, "unit": "%"}]}
{"compound": "CCOc1nc2cccc(C(=O)O)c2n1Cc1ccc(-c2ccccc2-c2noc(=O)[nH]2)cc1.CCOc1nc2cccc(C(=O)O)c2n1Cc1ccc(-c2ccccc2-c2noc(=O)[nH]2)cc1.NCCO", "note": "[Example 4]", "values": [{"measurement": "Hygroscopicity (percent of weight increase)", "setting": "[2]", "result": 0.08, "unit": "%"}, {"measurement": "Conclusion (hygroscopic or not)", "setting": "[2]; listed as Example 4 Compound", "result": "No"}, {"measurement": "Conclusion (hygroscopic or not)", "setting": "[2]; listed as example 4 compound", "result": "not hygroscopic"}, {"measurement": "Antihypertensive effect compared with control (Azilsartan medoxomil potassium salt)", "setting": "[4]; SHR rats, 2 weeks", "result": "superior to the antihypertensive effect of control"}, {"measurement": "Antihypertensive effect, ranking under the same dosage", "setting": "[4]; SHR rats, 2 weeks", "result": "less effective"}, {"measurement": "Effect on blood pressure of SHR rats compared with solvent control", "setting": "[4]; continuously administered for one or two weeks, FIG. 4", "result": "reduce the blood pressure of SHR rats significantly"}]}
